# Results taken from paper PMC4757768, “Mechanisms of amphetamine action illuminated through optical monitoring of dopamine synaptic vesicles in Drosophila brain” (Nature Communications, 2016).
# Biological target: T1, VMAT2 (Rattus norvegicus, UniProt Q01827)
# T1 construct: gene Slc18a2
# Test: inhibition of [3H]dopamine uptake in digitonin-treated HEK293 cells stably expressing rat VMAT2; binding Ki […] at mammalian VMAT2 also reported
# Format: cell-based
# T1 sequence (Q01827 whole entry): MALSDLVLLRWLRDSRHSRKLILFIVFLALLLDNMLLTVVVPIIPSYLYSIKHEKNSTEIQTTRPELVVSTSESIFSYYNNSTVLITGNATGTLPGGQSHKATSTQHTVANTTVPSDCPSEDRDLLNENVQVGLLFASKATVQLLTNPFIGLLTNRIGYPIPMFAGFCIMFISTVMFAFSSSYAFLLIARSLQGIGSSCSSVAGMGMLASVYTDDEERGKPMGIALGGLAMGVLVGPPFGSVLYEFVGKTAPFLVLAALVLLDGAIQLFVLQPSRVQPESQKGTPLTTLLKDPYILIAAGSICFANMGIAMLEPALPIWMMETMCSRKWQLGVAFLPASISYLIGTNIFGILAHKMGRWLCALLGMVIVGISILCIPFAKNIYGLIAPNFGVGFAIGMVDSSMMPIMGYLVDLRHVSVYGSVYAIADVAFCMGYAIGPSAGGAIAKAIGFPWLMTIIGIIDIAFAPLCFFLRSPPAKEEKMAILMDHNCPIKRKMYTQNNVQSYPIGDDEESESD
smiles,measurement,value
COc1cc2c(cc1O)[C@H]1CC(=O)[C@H](CC(C)C)CN1CC2 [(+)-CYY477],IC50,26 nM
